According to paper PMC10947113, “A Bivalent Activatable Fluorescent Probe for Screening and Intravital Imaging of Chemotherapy‐Induced Cancer Cell Death” (Angewandte Chemie (Weinheim an Der Bergstrasse, Germany), 2021):

System: breast cancer cells (MMTV-PyMT, MDA-MB231, MCF7)
Experiment: Dose-dependency study in breast cancer cell lines
Assay type: cell-based, mouse and human
Description: First, all drugs were tested in the 8 different cell lines to determine the percentages of Apotracker Red‐stained apoptotic cells compared to no treatment (Figure 3 c; Figure S8). […] From this screen, we decided to select 5 drugs with potent pro‐apoptotic response in breast cancer, the most diagnosed cancer worldwide.[25] […] From group 2, we selected cyclophosphamide, tamoxifen, and 5‐fluorouracil as pro‐apoptotic molecules. […] All 5 drugs were tested at multiple concentrations (from 1 to 100 μM) and with incubation times up to 48 h to examine whether drugs could block cell proliferation at late stages (Figures S9–S13).
Figure 4 Apotracker Red detects dose‐dependent chemotherapeutic‐induced apoptosis in mouse and human breast cancer cell lines. Cells were plated with 1 μM CV, treated with increasing concentrations (0, 1, 3, 10, 30 and 100 μM) of selected drugs for 48 h, and stained with Apotracker Red (150 nM) before data acquisition. Drugs: tamoxifen (beige), cisplatin (black), 5‐fluorouracil (green), gemcitabine (pink) and cyclophosphamide (red). Data presented as mean±SEM of 3 independent experiments.
Edinburgh. Human peripheral blood neutrophils were isolated as previously described.[3] Briefly, whole blood was drawn into tubes containing anti -coagulant 3.6% sodium citrate (final concentration: 0.4% (w/v)) and centrifuged at 350 g for 20 min at r.t. with lowest acceleration and no brake. Platelet-rich plasma was rem oved, and leukocytes separated from erythrocytes by 0.6% dextran sedimentation in saline for 30 min at r.t. […]
were centrifuged (300 g, 5 min, r.t.), washed once with PBS before addition of 0.05% Trypsin, 0.02% ethylenediaminetetraacetic acid (EDTA) in Hank’s balanced salt solution (HBSS) and incubation at 37°C for 5 min. […] Histograms and mean fluorescence intensities of apoptotic cells were measured on a 5L LSR flow cytometer under the following excitation/emission filters: Apotracker Red (561/610 nm), Annexin V-AF647 (647 /670 nm).
Data were acquired using the FACS Diva software and analysed using the FlowJo X software. […]

## N.N.[Cl][Pt][Cl] [cisplatin]
1 to 100 μM, 48 h, Apotracker Red 150 nM, 3 independent experiments
  percentages of Apotracker Red staining across all breast cancer cells, dose-dependency study: highest percentages of Apotracker Red staining
CellTrace Violet 1 μM, drugs 1 to 100 μM, up to 48 h
  ratios of proliferation blockage, dose-dependency study: highest ratios of proliferation blockage
